Measured values published in patent US20150231117A1 (Array BioPharma Inc., priority 2012, published 2015).

Key:
AAG = molecular target: T1, AAG; assay: TRANSIL binding assay, AAG; parameters: species or system human
T1 construct: other: TRANSIL, PBS pH 7.4, 2 μM drug; other: not for other serum proteins such as albumin; fused on or other part: AGP immobilised on TRANSIL silica beads (ready-to-use kit)
Description: (§1) TRANSIL® Binding Methodology (www.admecell.com)—Assay Buffers: phosphate buffered saline (“PBS”), pH 7.4 (Gibco 10010) and dimethylsulfoxide (“DMSO”). Plates: Ordered from ADMEcell (Alameda, Calif.). AGP—Full Plate: TBP-0211-0096; AGP—Strip Plate: TBP-0211-1196; HSA—Full Plate: TBP-0210-0096; HSA—Strip Plate: TBP-0210-1196. Stop Solution: 100% Acetonitrile spiked with Internal Standard (0.4 μM final concentration).
(§2) Drug Dilution: Dilution of drug samples to make a final 2 μM drug concentration (1% DMSO) (used 360 μL of final diluted drug per protein testing, i.e., 720 μL to run both AAG and HSA). Brought drug up to a 10 mM stock solution in DMSO. Diluted 10 mM stock to a 200 μM (0.2 mM) stock solution (added 4 μL of 10 mM stock solution into 196 μL, of DMSO). Diluted 200 μM stock to a 20 μM stock solution (added 100 μL of 200 μM DMSO stock solution into 900 μL of PBS Buffer, pH 7.4).
(§3) Thawed the assay kit either at room temperature (approximately 3 hours) or in the refrigerator at 4° C. overnight. The plates were put in the incubator, CO2 (5%) for 30 minutes prior to addition of compound. A pre-dilution of the compounds (10-fold assay concentration) were prepared, see Drug Dilution step above. […] Test article solution (45 μL) was added to the tubes/well of the ready-to-use kit and incubated for 2 minutes. […] The concentration of the supernatant was quantified with LC/MS (API4000). […]

HSA = molecular target: T2, HSA (Homo sapiens, UniProt P02768); assay: TRANSIL binding assay, HSA; conditions: PBS pH 7.4, 2 μM drug
T2 construct: purchased ADMEcell (Alameda, Calif.) TBP-0210-0096 / TBP-0210-1196
T2 sequence (P02768 25-609): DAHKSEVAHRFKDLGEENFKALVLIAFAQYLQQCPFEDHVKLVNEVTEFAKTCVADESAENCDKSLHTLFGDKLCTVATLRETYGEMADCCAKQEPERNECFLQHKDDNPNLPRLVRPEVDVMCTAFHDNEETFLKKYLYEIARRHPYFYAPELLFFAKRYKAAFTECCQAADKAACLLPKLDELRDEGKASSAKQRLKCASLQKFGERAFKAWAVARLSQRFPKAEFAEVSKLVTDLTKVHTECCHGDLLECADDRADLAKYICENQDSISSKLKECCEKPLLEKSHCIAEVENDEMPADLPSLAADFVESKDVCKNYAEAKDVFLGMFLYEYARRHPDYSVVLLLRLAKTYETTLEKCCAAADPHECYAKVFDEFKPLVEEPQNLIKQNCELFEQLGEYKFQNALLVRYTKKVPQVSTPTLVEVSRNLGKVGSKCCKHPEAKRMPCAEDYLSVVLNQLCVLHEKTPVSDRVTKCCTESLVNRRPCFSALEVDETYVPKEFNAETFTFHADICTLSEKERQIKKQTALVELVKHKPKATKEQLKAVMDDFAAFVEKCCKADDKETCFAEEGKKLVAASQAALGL
Description: as §1, §2, §3

% Fu to human plasma = format: in vitro ADME; conditions: human plasma (ready-to-use bead-based binding assay kit)
Description: Thawed the assay kit either at room temperature (approximately 3 hours) or in the refrigerator at 4° C. overnight. The plates were put in the incubator, CO2 (5%) for 30 minutes prior to addition of compound. A pre-dilution of the compounds (10-fold assay concentration) were prepared, see Drug Dilution step above. The drug dilutions were warmed in a 37° C. water bath prior to dosing compound into plate. Caution: Check carefully the pre-dilution for any precipitation and ensure a sufficient buffer solubility and stability of your test article. Test article solution (45 μL) was added to the tubes/well of the ready-to-use kit and incubated for 2 minutes. Mixed ten times by re-suspending the beads. Re-suspended approximately half of the total volume of the vial (total volume is 450 μL). […] The vials were spun with a swing-out centrifuge for 10 minutes at 750 g. 100 μL was carefully transferred to 96-well plate. Acetonitrile (50 μL) was added with labetalol as the internal standard (0.4 μM final concentration). The plates were sealed for analysis. The concentration of the supernatant was quantified with LC/MS (API4000). See also, Brown, Karin D. supra. The result is in Table 1. pKa value was estimated using ACD/pKa DB software. Calculations: [formula]

NCI H929 MM cells = assay: 3 day Cell Titer Blue viability assay with added AAG, NCI H929; format: cell-based, human
From the text: (§4) Kit: Cell Titer-Blue Cell Viability Assay, Promega Corp. (Madison Wis.) Catalog No. G8081

RPMI-8226 MM cells = assay: Cell Titer Blue viability assay with added AAG, RPMI 8226; format: cell-based, human
From the text: as §4

KSP = molecular target: T3, KSP (Homo sapiens, UniProt P52732); assay: Estimated in vitro unbound IC50
T3 sequence (P52732 1-1056): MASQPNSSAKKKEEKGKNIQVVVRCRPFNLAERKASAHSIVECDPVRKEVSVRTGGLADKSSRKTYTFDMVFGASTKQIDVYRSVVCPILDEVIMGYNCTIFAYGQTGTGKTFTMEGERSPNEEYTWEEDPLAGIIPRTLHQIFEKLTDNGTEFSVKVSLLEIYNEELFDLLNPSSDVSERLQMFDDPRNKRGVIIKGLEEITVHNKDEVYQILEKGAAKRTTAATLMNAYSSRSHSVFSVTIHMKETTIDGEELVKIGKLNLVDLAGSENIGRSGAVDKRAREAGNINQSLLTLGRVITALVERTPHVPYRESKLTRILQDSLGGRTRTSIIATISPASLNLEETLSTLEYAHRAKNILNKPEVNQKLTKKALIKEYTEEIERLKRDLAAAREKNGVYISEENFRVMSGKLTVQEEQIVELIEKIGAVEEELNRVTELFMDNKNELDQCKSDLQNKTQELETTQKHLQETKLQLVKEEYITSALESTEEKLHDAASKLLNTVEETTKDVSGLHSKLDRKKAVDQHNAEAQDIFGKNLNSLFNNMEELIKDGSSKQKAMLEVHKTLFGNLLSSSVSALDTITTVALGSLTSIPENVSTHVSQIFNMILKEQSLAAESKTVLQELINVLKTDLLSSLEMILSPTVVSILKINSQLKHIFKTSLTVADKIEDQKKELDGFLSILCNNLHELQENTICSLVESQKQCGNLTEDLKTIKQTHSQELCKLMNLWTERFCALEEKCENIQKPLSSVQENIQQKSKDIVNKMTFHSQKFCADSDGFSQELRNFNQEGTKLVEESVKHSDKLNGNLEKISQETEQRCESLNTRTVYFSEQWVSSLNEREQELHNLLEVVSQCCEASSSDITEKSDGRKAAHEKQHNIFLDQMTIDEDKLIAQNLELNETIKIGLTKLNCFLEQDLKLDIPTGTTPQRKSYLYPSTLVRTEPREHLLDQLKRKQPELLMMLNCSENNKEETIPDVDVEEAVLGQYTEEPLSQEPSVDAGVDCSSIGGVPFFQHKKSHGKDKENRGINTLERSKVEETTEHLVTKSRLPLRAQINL
Description: Model optimization was accomplished using the QRPEM engine of Phoenix 6.3 (Pharsight Corporation, St. Louis, Mo.). Model selection was based on AIC comparisons and diagnostic plots. Simulations were for a typical patient receiving Phase 2 dose of 1.5 mg/m^2 on day 1 and day 2 with varying [AAG].

Dose limiting toxicity = conditions: in vivo
From the text: As such, prophylactic granulocyte colony-stimulating factory (“G-CSF”) may be administered.

[1] = tested on: Patients with Relapsed or Refractory Multiple Myeloma; assay: Clinical study in patients with relapsed or refractory multiple myeloma, analysed by baseline [AAG]; format: in vivo, human
Description: The R&D Systems, Inc. (Minneapolis, Minn.) Quantikine® Human α1-Acid Glycoprotein Immunoassay (Catalog No. DAGPOO) is a 4.5 hour solid-phase ELISA designed to measure human AAG in cell culture supemates, serum, plasma, and urine. This assay employed the quantitative sandwich enzyme immunoassay technique. […] Standards and samples are pipetted into the wells, and any AAG present is bound by the immobilized antibody. After washing away any unbound substances, an enzyme-linked polyclonal antibody specific for AAG is added to the wells. Following a wash to remove any unbound antibody-enzyme reagent, a substrate solution is added to the wells, and color develops in proportion to the amount of AAG bound in the initial step. The color development is stopped, and the intensity of the color is measured. The assay was performed as described in the package insert, except where described otherwise below.

[2] = Phase 2 + dex (with dexamethasone), All Patients, n=18
[3] = Phase 2 + dex (with dexamethasone), [AAG] <1.1 g/L, n=12
[4] = Phase 2 Single Agent, All Patients, n=27
[5] = Phase 2 Single Agent, [AAG] <1.1 g/L, n=21

## CON(C)C(=O)N1N=C(c2cc(F)ccc2F)S[C@@]1(CCCN)c1ccccc1.Cl [ARRY-520, (S)-2-(3-Aminopropyl)-5-(2,5-difluorophenyl)-N-methoxy-N-methyl-2-phenyl-1,3,4-thiadiazole-3(2H)-carboxamide]
AAG; TRANSIL, PBS pH 7.4, 2 μM drug
  Kd: 5 µM
AAG; not for other serum proteins such as albumin
  affinity for AAG in in vitro assays: low micromolar affinity
HSA
  Kd: 147 µM
% Fu to human plasma
  fraction unbound at 2 min: 0.07
NCI H929 MM cells; AAG 0.5-4 mg/mL final concentration, FIG. 1
  decrease of cellular sensitivity to ARRY-520 as [AAG] increases: greater than 30 fold
NCI H929 MM cells; NCI H929
  effect of increasing AAG levels on cell sensitivity: decrease cell sensitivity
RPMI-8226 MM cells
  effect of increasing AAG levels on cell sensitivity: decrease cell sensitivity
KSP
  IC50: 0.000438 µM
Dose limiting toxicity
  major dose limiting toxicity (DLT): neutropenia
[1]; Phase 1, All Patients, n=27
  Median Time on Study (months): 3.9 months
  ≧MR, number of patients: 4
  ≧MR, rate: 15%
  ≧PR, number of patients: 3
  ≧PR, rate: 11%
[1]; Phase 1, [AAG] <1.1 g/L, n=20
  Median Time on Study (months): 5.2 months
  ≧MR, number of patients: 4
  ≧MR, rate: 20%
  ≧PR, number of patients: 3
  ≧PR, rate: 15%
[1]; [2]
  Median Time on Study (months): 3.9 months
  ≧MR, number of patients: 6
  ≧MR, rate: 33%
  ≧PR, number of patients: 4
  ≧PR, rate: 22%
[1]; [3]
  Median Time on Study (months): 6.2 months
  ≧MR, number of patients: 6
  ≧MR, rate: 50%
  ≧PR, number of patients: 4
  ≧PR, rate: 33%
[1]; [4]
  Median Time on Study (months): 2.8 months
  ≧MR, number of patients: 6
  ≧MR, rate: 22%
  ≧PR, number of patients: 5
  ≧PR, rate: 19%
[1]; [5]
  Median Time on Study (months): 3.4 months
  ≧MR, number of patients: 6
  ≧MR, rate: 29%
  ≧PR, number of patients: 5
  ≧PR, rate: 24%
[1]; baseline [AAG] greater than 1.1 g/L, FIG. 5
  time to coming off study, most patients with high baseline [AAG]: less than 5 months
[1]; with each 1.0 g/L increase in [AAG], p<0.01
  increase of risk for discontinuing the study: 2.5 fold
